Converted amounts (≈) assume the structure as drawn.
What was measured:
[1] = test system: Mycobacterium tuberculosis; test: Bactericidal activity against Mycobacterium tuberculosis H37Rv measured up to 7 days by luminescence assay; format: functional; conditions: time <= 7 day
[2] = test system: Mycobacterium tuberculosis; test: Antitubercular activity against Mycobacterium tuberculosis H37Rv ATCC 27294 by microplate alamar blue assay; format: functional
[3] = Cytotoxicity against African green monkey Vero cells measured after 3 days by resazurin dye based fluorescence assay; format: toxicity, cell-based; conditions: African green monkey (Chlorocebus sabaeus)
[4] = test system: Mycobacterium tuberculosis; test: Antitubercular activity against Mycobacterium tuberculosis KMA 4244 by microplate alamar blue assay; format: functional
[5] = test system: Mycobacterium tuberculosis; test: Antitubercular activity against Mycobacterium tuberculosis KMA 5282 by microplate alamar blue assay; format: functional
Enterococcus faecium = test: Antibacterial activity against Enterococcus faecium by microplate alamar blue assay; format: functional
[6] = test system: Mycobacterium tuberculosis; test: Antitubercular activity against Mycobacterium tuberculosis KMA 1354 by microplate alamar blue assay; format: functional
Klebsiella pneumoniae = test: Antibacterial activity against Klebsiella pneumoniae by microplate alamar blue assay; format: functional
Staphylococcus aureus = test: Antibacterial activity against Staphylococcus aureus by microplate alamar blue assay; format: functional
[7] = test system: Mycobacterium tuberculosis; test: Antitubercular activity against Mycobacterium tuberculosis KMA 3899 by microplate alamar blue assay; format: functional
Pseudomonas aeruginosa = test: Antibacterial activity against Pseudomonas aeruginosa by microplate alamar blue assay; format: functional
[8] = test system: Mycobacterium tuberculosis; test: Antitubercular activity against Mycobacterium tuberculosis KMA 4439 by microplate alamar blue assay; format: functional
Acinetobacter baumannii = test: Antibacterial activity against Acinetobacter baumannii by microplate alamar blue assay; format: functional
Klebsiella aerogenes = test: Antibacterial activity against Enterobacter aerogenes by microplate alamar blue assay; format: functional
[9] = test system: Mycobacterium tuberculosis; test: Antitubercular activity against Mycobacterium tuberculosis H37Rv by microplate alamar blue assay; format: functional
Candida albicans = test: Antifungal activity against Candida albicans by microplate alamar blue assay; format: functional
[10] = test system: Mycobacteroides abscessus; test: Antibacterial activity against Mycobacterium abscessus ATCC 19977 incubated for 3 days by microplate alamar blue assay; format: functional; conditions: ATCC 19977, 72 h, time 3 day
Mycobacteroides chelonae = test: Antibacterial activity against Mycobacteroides chelonae ATCC 35752 incubated for 3 days by microplate alamar blue assay; format: functional; conditions: ATCC 35752, 72 h, time 3 day
[11] = test system: Mycobacterium tuberculosis; test: Antitubercular activity against Mycobacterium tuberculosis H37Rv assessed as post antibiotic affect by measuring time required for 1 log10 increase in RLU at 0.5 uM measured daily for up to 14 days by luminescence assay; format: functional; conditions: time <= 14 day
[12] = test system: Mycobacterium tuberculosis; test: Antitubercular activity against Mycobacterium tuberculosis H37Rv assessed as post antibiotic affect by measuring time required for 1 log10 increase in RLU at 0.05 uM measured daily for up to 14 days by luminescence assay; format: functional; conditions: time <= 14 day
Mycobacterium avium = test: Antibacterial activity against Mycobacterium avium ATCC 15769 incubated for 6 days by microplate alamar blue assay; format: functional; conditions: ATCC 15769, 144 h, time 6 day
[13] = test system: Mycobacterium tuberculosis; test: Antitubercular activity against Mycobacterium tuberculosis H37Rv assessed as post antibiotic affect by measuring time required for 1 log10 increase in RLU at 5 uM measured daily for up to 14 days by luminescence assay; format: functional; conditions: time <= 14 day
Mycobacterium marinum = test: Antibacterial activity against Mycobacterium marinum ATCC 927 incubated for 5 days by microplate alamar blue assay; format: functional; conditions: ATCC 927, 120 h, time 5 day
Mycobacterium kansasii = test: Antibacterial activity against Mycobacterium kansasii ATCC 12478 incubated for 7 days by microplate alamar blue assay; format: functional; conditions: ATCC 12478, 168 h, time 7 day

SMILES | MBC99 [1] | MIC90 [2] | IC50 at 3 days [3] | MIC90 [4] | MIC90 [5] | MIC90 [6] | MIC90 [7] | MIC90 [8] | MIC90 [9] | MIC90 [10] | MIC90 (Mycobacteroides chelonae) | MIC90 (Mycobacterium avium) | MIC90 (Mycobacterium marinum) | MIC90 (Mycobacterium kansasii) | also measured
COc1c(N2C[C@@H]3CCCN[C@@H]3C2)c(F)cc2c(=O)c(C(=O)O)cn(C3CC3)c12 [MOXIFLOXACIN] | 470 µg/mL (≈ 1170 µM) | 0.19 µM (≈ 0.0763 µg/mL) | > 100 µM | 0.42 µM (≈ 0.169 µg/mL) | 0.48 µM (≈ 0.193 µg/mL) | 0.12 µM (≈ 0.0482 µg/mL) | 0.11 µM (≈ 0.0442 µg/mL) | 0.33 µM (≈ 0.132 µg/mL) | 0.29 µM (≈ 0.116 µg/mL) | – | – | – | – | – | MIC90 (Enterococcus faecium): 1.58 µM (≈ 0.634 µg/mL); MIC90 (Klebsiella pneumoniae): < 0.195 µM; MIC90 (Staphylococcus aureus): < 0.195 µM; MIC90 (Pseudomonas aeruginosa): 0.75 µM (≈ 0.301 µg/mL); MIC90 (Acinetobacter baumannii): < 0.195 µM; MIC90 (Klebsiella aerogenes): < 0.195 µM
C[C@@H]1[C@H](O)[C@@H](C)/C=C/C=C/C=C/C=C/C=C/C=C/C=C/[C@H](O[C@@H]2O[C@H](C)[C@@H](O)[C@H](N)[C@@H]2O)C[C@@H]2O[C@](O)(C[C@@H](O)C[C@@H](O)[C@H](O)CC[C@@H](O)C[C@@H](O)CC(=O)O[C@H]1C)C[C@H](O)[C@H]2C(=O)O [AMPHOTERICIN B] | – | – | – | – | – | – | – | – | – | – | – | – | – | – | MIC90 (Candida albicans): < 0.195 µM
CO[C@H]1/C=C/O[C@@]2(C)Oc3c(C)c(O)c4c(O)c(c(/C=N/N5CCN(C)CC5)c(O)c4c3C2=O)NC(=O)/C(C)=C\C=C\[C@H](C)[C@H](O)[C@@H](C)[C@@H](O)[C@@H](C)[C@H](OC(C)=O)[C@@H]1C [RIFAMPIN] | 70 µg/mL (≈ 85.1 µM) | 0.02 µM (≈ 0.0165 µg/mL) | > 95.7 µM | 0.11 µM (≈ 0.0905 µg/mL) | 0.14 µM (≈ 0.115 µg/mL) | 0.05 µM (≈ 0.0411 µg/mL) | 0.04 µM (≈ 0.0329 µg/mL) | 0.22 µM (≈ 0.181 µg/mL) | 0.06 µM (≈ 0.0494 µg/mL) | > 10 µM | 6.93 µM (≈ 5.7 µg/mL) | 3.05 µM (≈ 2.51 µg/mL) | 2.23 µM (≈ 1.84 µg/mL) | 2.36 µM (≈ 1.94 µg/mL) | PAE [11]: ~60 h; PAE [12]: ~24 h; PAE [13]: ~60 h
COc1nc2ccc(Br)cc2cc1[C@@H](c1ccccc1)[C@@](O)(CCN(C)C)c1cccc2ccccc12 [BEDAQUILINE] | 150 µg/mL (≈ 270 µM) | 0.01 µM (≈ 0.00556 µg/mL) | 51.4 µM | 0.24 µM (≈ 0.133 µg/mL) | 0.24 µM (≈ 0.133 µg/mL) | 0.24 µM (≈ 0.133 µg/mL) | 0.12 µM (≈ 0.0667 µg/mL) | 0.24 µM (≈ 0.133 µg/mL) | 0.12 µM (≈ 0.0667 µg/mL) | 0.49 µM (≈ 0.272 µg/mL) | 0.48 µM (≈ 0.267 µg/mL) | 0.44 µM (≈ 0.244 µg/mL) | 0.45 µM (≈ 0.25 µg/mL) | 0.45 µM (≈ 0.25 µg/mL) | –

Reference: ChEMBL document CHEMBL6182867, “Discovery of ultra short β-peptoids with selective activity against drug-resistant Mycobacterium tuberculosis” (Eur J Med Chem, 2025)
